Reference: patent publication US11111251B2, “Positive allosteric modulators of the muscarinic acetylcholine receptor M1” (Vanderbilt University, priority 2016, dated 2021)
Read-outs that look alike come from different tables or passages of the source.

Target: T1, human mAChR M1 (Homo sapiens, UniProt P11229)
T1 sequence (P11229 1-460): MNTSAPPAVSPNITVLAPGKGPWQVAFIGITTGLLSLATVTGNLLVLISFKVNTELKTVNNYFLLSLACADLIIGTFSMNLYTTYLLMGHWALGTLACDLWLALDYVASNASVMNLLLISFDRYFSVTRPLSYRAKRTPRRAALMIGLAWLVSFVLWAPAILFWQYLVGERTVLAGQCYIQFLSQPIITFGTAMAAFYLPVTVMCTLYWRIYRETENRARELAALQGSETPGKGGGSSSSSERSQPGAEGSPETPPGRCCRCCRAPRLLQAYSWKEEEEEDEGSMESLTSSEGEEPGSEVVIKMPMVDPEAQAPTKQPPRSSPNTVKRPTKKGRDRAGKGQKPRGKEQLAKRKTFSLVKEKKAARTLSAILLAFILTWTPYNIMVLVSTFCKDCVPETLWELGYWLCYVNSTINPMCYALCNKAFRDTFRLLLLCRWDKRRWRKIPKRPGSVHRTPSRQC
Experiment: mAChR M1 cell-based functional assay: calcium mobilization, positive allosteric modulator mode (increase in EC20 acetylcholine response)
Conditions: for Emax: read-out: Human M1 Emax (%)
Summary of the method: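 Calcium-flux assay in CHO-K1 cells stably expressing human M1, loaded with Fluo-4 AM (50 min, 37 °C) and read at 1 Hz. Compound (11-point, 1:3 series) was added at 4 s, EC20 acetylcholine at 144 s and EC80 at 230 s. PAM activity is the concentration-dependent rise in the EC20 response, fitted with a four-parameter logistic.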

[1] = Table 2, human M1, read-out: Human M1 EC50
[2] = Table 1, mAChR M1 cell-based functional assay, PAM mode, species not given, read-out: EC50

Compound | EC50 [1] | Emax (Table 2, human M1) | EC50 [2]
O=C(N[C@H]1CCOC1)c1cc(Cc2ccc(-c3cncs3)cc2)c2sccc2n1 [Compound 399, N-[(3S)-tetrahydrofuran-3-yl]-7-[(4-thiazol-5-ylphenyl)methyl]thieno[3,2-b]pyridine-5-carboxamide] | 4310 nM | 45.1% | 
O=C(N[C@@H]1CC[C@H]1O)c1cc(Cc2c(F)cc(-c3cscn3)cc2F)c2sccc2n1 [Compound 274, 7-[(2,6-difluoro-4-thiazol-4-yl-phenyl)methyl]-N-[(1R,2R)-2-hydroxycyclobutyl]thieno[3,2-b]pyridine-5-carboxamide] | > 10000 nM | 46.8% | 
Cc1ccc(Oc2cc(C(=O)N[C@H]3CCCCC[C@@H]3O)nc3ccsc23)cn1 [Compound 25, N-[(1S,2S)-2-hydroxycycloheptyl]-7-[(6-methyl-3-pyridyl)oxy]thieno[3,2-b]pyridine-5-carboxamide] |  |  | 750 nM
Cn1cc(-c2ccc(Cc3cc(C(=O)N[C@H]4CCOC[C@@H]4O)nc4ccsc34)cn2)cn1 [Compound 225, N-[(3R,4S)-3-hydroxytetrahydropyran-4-yl]-7-[[6-(1-methylpyrazol-4-yl)-3-pyridyl]methyl]thieno[3,2-b]pyridine-5-carboxamide] | 7.31 nM | 63.6% | 
Cn1ccc(-c2ccc(Cc3cc(C(=O)NC4CC5(COC5)C4)nc4ccsc34)cc2)n1 [Compound 252, 7-[[4-(1-methylpyrazol-3-yl)phenyl]methyl]-N-(2-oxaspiro[3.3]heptan-6-yl)thieno[3,2-b]pyridine-5-carboxamide] | 258 nM | 78.4% | 
Cc1ccc(Oc2cc(C(=O)N[C@H]3COCC[C@@H]3O)nc3ccsc23)cn1 [Compound 23, N-[(3S,4S)-4-hydroxytetrahydropyran-3-yl]-7-[(6-methyl-3-pyridyl)oxy]thieno[3,2-b]pyridine-5-carboxamide] |  |  | > 10000 nM
Cc1csc2c(Cc3ccc(-n4cccn4)cc3)cc(C(=O)NC3CCCNC3=O)nc12 (stereo not shown) [Compound 122, 3-methyl-N-(2-oxo-3-piperidyl)-7-[(4-pyrazol-1-ylphenyl)methyl]thieno[3,2-b]pyridine-5-carboxamide] | 869 nM | 80.4% | 
Cc1ccc(Cc2cc(C(=O)NC3(C#N)CC3)nc3ccsc23)cn1 [Compound 257, N-(1-cyanocyclopropyl)-7-[(6-methyl-3-pyridyl)methyl]thieno[3,2-b]pyridine-5-carboxamide] | > 10000 nM | 26.4% | 
Cn1ccc(-c2ccc(Cc3cc(C(=O)N[C@@H]4CCOC4)nc4ccsc34)cn2)n1 [Compound 418, 7-[[6-(1-methylpyrazol-3-yl)-3-pyridyl]methyl]-N-[(3R)-tetrahydrofuran-3-yl]thieno[3,2-b]pyridine-5-carboxamide] | 5130 nM | 67% | 
Cn1ccc2nc(C(=O)NC3CCOCC3)cc(Cc3ccc(-c4nccs4)cc3)c21 [Compound 480, 1-methyl-N-tetrahydropyran-4-yl-7-[(4-thiazol-2-ylphenyl)methyl]pyrrolo[3,2-b]pyridine-5-carboxamide] | 360 nM | 57.2% | 
Cc1ccc(Oc2cc(C(=O)NC3CCOCC3)nc3ccsc23)cn1 [Compound 20, 7-[(6-methyl-3-pyridyl)oxy]-N-tetrahydropyran-4-yl-thieno[3,2-b]pyridine-5-carboxamide] |  |  | > 10000 nM
Cc1ccc(Cc2cc(C(=O)NC3C4CC5C[C@H]3CC(O)(C5)C4)nc3ccsc23)cn1 (stereo partly drawn) [Compound 64, N-[(1S)-5-hydroxy-2-adamantyl]-7-[(6-methyl-3-pyridyl)methyl]thieno[3,2-b]pyridine-5-carboxamide] | 962 nM | 70.7% | 
Cn1cc(-c2ccc(Oc3cc(C(=O)N[C@H]4CCCC[C@@H]4O)nc4ccsc34)c(F)c2)cn1 [Compound 2, 7-[2-fluoro-4-(1-methylpyrazol-4-yl)phenoxy]-N-[(1S,2S)-2-hydroxycyclohexyl]thieno[3,2-b]pyridine-5-carboxamide] |  |  | 2150 nM
Cn1cc2c(-c3ccc(Oc4cc(C(=O)N[C@H]5COCC[C@@H]5O)nc5ccsc45)c(F)c3)cccc2n1 [Compound 14] |  |  | 4250 nM
Cn1ccc(-c2ccc(Cc3cc(C(=O)NC4CC(F)(F)C4)nc4ccn(C)c34)cn2)n1 [Compound 511, N-(3,3-difluorocyclobutyl)-1-methyl-7-[[6-(1-methylpyrazol-3-yl)-3-pyridyl]methyl]pyrrolo[3,2-b]pyridine-5-carboxamide;] | 1770 nM | 66.1% | 
Cc1ccc(Oc2cc(C(=O)N[C@H]3CCOC[C@@H]3O)nc3ccsc23)cn1 [Compound 22, N-[(3R,4S)-3-hydroxytetrahydropyran-4-yl]-7-[(6-methyl-3-pyridyl)oxy]thieno[3,2-b]pyridine-5-carboxamide] |  |  | 1790 nM
Cn1ccc(-c2ccc(Cc3cc(C(=O)NCC4CCO4)nc4ccsc34)cn2)n1 (stereo not shown) [Compound 355, 7-[[6-(1-methylpyrazol-3-yl)-3-pyridyl]methyl]-N-(oxetan-2-ylmethyl)thieno[3,2-b]pyridine-5-carboxamide] | 355 nM | 86.6% | 
Cc1ccc(Cc2cc(C(=O)N[C@H]3CCOC[C@@H]3O)nc3ccsc23)cn1 [Compound 45, N-[(3R,4S)-3-hydroxytetrahydropyran-4-yl]-7-[(6-methyl-3-pyridyl)methyl]thieno[3,2-b]pyridine-5-carboxamide] |  |  | 80 nM
Cn1ccc(-c2ccc(Cc3cc(C(=O)NC4CC5(COC5)C4)nc4ccn(C)c34)cc2)n1 [Compound 475, 1-methyl-7-[[4-(1-methylpyrazol-3-yl)phenyl]methyl]-N-(2-oxaspiro[3.3]heptan-6-yl)pyrrolo[3,2-b]pyridine-5-carboxamide] | 183 nM | 83.5% | 
O=C(NC1CC(F)(F)C1)c1cc(Cc2ccc(-c3nccs3)cc2)c2sccc2n1 [Compound 383] | > 10000 nM | 30.4% | 

Results, then the compound that gave them:

EC50 [1] | Emax (Table 2, human M1) | EC50 [2] | Compound
34.8 nM | 64.8% |  | Cn1ccc2nc(C(=O)N[C@H]3CCCC[C@@H]3O)cc(Cc3ccc(-c4cscn4)cc3)c21 [Compound 457, N-[(1S,2S)-2-hydroxycyclohexyl]-1-methyl-7-[(4-thiazol-4-ylphenyl)methyl]pyrrolo[3,2-b]pyridine-5-carboxamide]
362 nM | 93.2% |  | Cc1nc(-c2ccc(Cc3cc(C(=O)N[C@@H]4CC[C@H]4O)nc4ccsc34)cc2)cs1 [Compound 176, N-[(1R,2R)-2-hydroxycyclobutyl]-7-[[4-(2-methylthiazol-4-yl)phenyl]methyl]thieno[3,2-b]pyridine-5-carboxamide]
109 nM | 65.5% |  | Cc1csc2c(Cc3ccc(-c4ccn(C)n4)cc3)cc(C(=O)N[C@H]3CCCC[C@@H]3O)nc12 [Compound 312, N-[(1S,2S)-2-hydroxycyclohexyl]-3-methyl-7-[[4-(1-methylpyrazol-3-yl)phenyl]methyl]thieno[3,2-b]pyridine-5-carboxamide]
84.2 nM | 82.6% |  | Cc1nc(-c2ccc(Cc3cc(C(=O)N[C@@H]4CCCC[C@H]4O)nc4ccsc34)cc2)co1 [Compound 168, N-[(1R,2R)-2-hydroxycyclohexyl]-7-[[4-(2-methyloxazol-4-yl)phenyl]methyl]thieno[3,2-b]pyridine-5-carboxamide]
3300 nM | 72.1% |  | COC1CC(NC(=O)c2cc(Cc3ccc(-c4csc(C)n4)cc3)c3sccc3n2)C1 (stereo not shown) [Compound 180, N-(3-methoxycyclobutyl)-7-[[4-(2-methylthiazol-4-yl)phenyl]methyl]thieno[3,2-b]pyridine-5-carboxamide]
129 nM | 73.4% |  | Cn1ccc2nc(C(=O)N[C@H]3CCC[C@@H]3O)cc(Cc3ccc(-c4cscn4)cc3)c21 [Compound 458, N-[(1S,2S)-2-hydroxycyclopentyl]-1-methyl-7-[(4-thiazol-4-ylphenyl)methyl]pyrrolo[3,2-b]pyridine-5-carboxamide]
3260 nM | 51% |  | Cn1cc(-c2ccc(Cc3cc(C(=O)N[C@H]4CCC[C@@H]4O)nc4ccsc34)c(F)c2)cn1 [Compound 56, 7-[[2-fluoro-4-(1-methylpyrazol-4-yl)phenyl]methyl]-N-[(1S,2S)-2-hydroxycyclopentyl]thieno[3,2-b]pyridine-5-carboxamide]
> 10000 nM | 17.8% |  | Cc1nn(C)c(C)c1-c1ccc(Cc2cc(C(=O)N[C@H]3CCC[C@@H]3O)nc3ccsc23)cc1 [Compound 242]
77 nM | 57.6% |  | Cn1ccc(-c2ccc(Cc3cc(C(=O)N[C@H]4CCCCC[C@@H]4O)nc4ccsc34)cn2)n1 [Compound 411]
33.1 nM | 85.5% |  | Cn1cc(-c2ccc(Cc3cc(C(=O)N[C@H]4CC[C@@H]4O)nc4ccsc34)cc2)nn1 [Compound 148, N-[(1S,2S)-2-hydroxycyclobutyl]-7-[[4-(1-methyltriazol-4-yl)phenyl]methyl]thieno[3,2-b]pyridine-5-carboxamide]
10.1 nM | 72.7% |  | O=C(N[C@H]1CCOC[C@@H]1O)c1cc(Cc2ccc(-c3cscn3)cc2)c2sccc2n1 [Compound 215, N-[(3R,4S)-3-hydroxytetrahydropyran-4-yl]-7-[(4-thiazol-4-ylphenyl)methyl]thieno[3,2-b]pyridine-5-carboxamide]
